The values that follow come from US20210038577A1, “THIOREDOXIN REDUCTASE INHIBITORS FOR USE IN THE TREATMENT OF CANCER” (Cinda Pharma AB, priority 2018, published 2021).

Where “and” joins values, the source holds several entries; their conditions need not be identical. Identical values can stand only once.

The subject of series [1] is MDA-MB-468 (a breast cancer cell line). Description: MTT cell viability assay, MDA-MB-468. It counts as cell-based. To be noted: Homo sapiens, MDA-MB-468, 72 hrs. How it is done:
(§1) MDA-MB-453 (ATCC HTB-131) cells were grown in media with sodium pyruvate. MDA-MB-231 cells (ATCC HTB-26) were grown in DMEM media or L-15 supplemented with Glutamax (1×). U87-MG (ATCC HTB-14) and MDA-MB-468 (ATCC HTB-132) cells were cultured in DMEM supplemented with Glutamax (1×). NB-4 (DSMZ ACC-207) cells were cultured in RPMI 1640.
(§2) Breast cancer and glioblastoma cell lines were plated 4000 cells/well in 96-well plates in the presence of 10% FBS media. The following day cells were treated with various concentrations of the example compounds (0.1% DMSO final) and incubated for 72 hrs. After the incubation an MTT assay was performed to access cell viability. Percent of viability was determined using DMSO vehicle and no cell (blank) controls.
(Formazan colour is commonly taken as a measure of viable cells.)

Series [2] concerns U-87 MG (a glioblastoma cell line). Description: MTT cell viability assay, U-87 MG. In kind it is cell-based. To be noted: Homo sapiens, U-87 MG, 72 hrs. How it is done:
as §1, §2

For series [3], the target named is T1, recombinant rat TrxR (Rattus norvegicus, UniProt O89049).
T1 sequence (O89049 1-499): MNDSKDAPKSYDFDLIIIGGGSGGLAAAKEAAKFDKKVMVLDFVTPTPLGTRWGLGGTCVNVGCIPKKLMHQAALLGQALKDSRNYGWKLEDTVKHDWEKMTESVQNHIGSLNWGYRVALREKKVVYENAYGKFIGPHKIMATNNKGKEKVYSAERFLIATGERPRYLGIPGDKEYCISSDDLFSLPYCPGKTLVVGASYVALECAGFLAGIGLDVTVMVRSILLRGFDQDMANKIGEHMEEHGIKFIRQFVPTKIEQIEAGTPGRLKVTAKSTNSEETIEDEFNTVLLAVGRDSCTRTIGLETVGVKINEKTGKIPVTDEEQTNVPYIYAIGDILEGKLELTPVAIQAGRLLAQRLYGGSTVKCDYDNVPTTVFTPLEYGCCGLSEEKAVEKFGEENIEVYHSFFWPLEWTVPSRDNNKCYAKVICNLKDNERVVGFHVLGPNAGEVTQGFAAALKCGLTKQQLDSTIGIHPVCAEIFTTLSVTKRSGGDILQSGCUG
Description: Sec-dependent TrxR activity (DTNB assay). It counts as biochemical. The conditions noted are these: binding time of 4 hours (FIG. 1A). How it is done: Sec-dependent TrxR activity was assessed using a 5′-5-dithiobis-(2-nitrobenzoic acid) (DTNB) assay. Multiple concentrations of compounds were incubated for various time points in reaction buffer, consisting of 50 mM Tris pH 7.5 with 2 mM EDTA and 0.1 mg/mL bovine serum albumin, and containing recombinant rat TrxR and 250 μM NADPH. 2.5 mM DTNB was added to each well and TNB^− production was followed at OD412. […] The amino acid sequence of rat TrxR1 is available in Gen Bank, with accession number AAF32362.1.

For series [4], the system named is TM00098 patient-derived xenografts (TNBC). Description: TM00098 patient derived TNBC xenografts in humanized Hu-CD34-NSG mice, tumor growth. It counts as in vivo. From the text:
FIG. 11: Primary tumor growth of TM00098 patient derived triple-negative breast cancer xenografts in humanized immunocompetent NSG mice (Hu-CD34-NSG) treated with OT-1096 or vehicle control. A) Humanized NSG mice (Hu-CD34-NSG) engrafted with CD34+ cells from donor 5243 and subsequently implanted with TNBC PDX TM00098. B) Humanized NSG mice (Hu-CD34-NSG) engrafted with CD34+ cells from donor 5252 and subsequently implanted with TNBC PDX TM00098. Female NSG mice were implanted with human CD34+ hematopoietic stem cells from multiple donors and the level of human CD45+ cells were measured in the peripheral blood 12 weeks post engraftment. Mice with >25% human CD45+ cells in the peripheral blood were determined to have a humanized immune system (Hu-CD34-NSG™) mice and were enrolled into the study. […] Tumor volume was measured using a digital caliper two times a week for the duration of the study. […] Statistical significance (p<0.05) was determined using a Two-way repeated measures ANOVA with Sidak's multiple comparison test.
Athymic nude mice were inoculated orthotopically with 5×10^6 MDA-MB-231 breast cancer cells into the mammary fat pad, and randomized for treatment when tumors reached an average volume of 80-120 mm^3 (N=12 in each group). […] Xenograft tumor volume was assessed using caliper measurements for 25 days. […] Xenograft tumor volume was assessed using caliper measurements for 25 days. […]
Background: A xenograft is tissue or cells of one species grown in another, often human tumour cells in immunodeficient mice.

On to `NC(=O)c1ccc(I)c([N+](=O)[O-])c1` [Iniparib, 4-Iodo-3-nitrobenzamide, reference compound], for which the IC50 in series [1] and in series [2] was over 33 µM each time.

In the case of `COc1ccc([N+](=O)[O-])c(S(=O)(=O)c2ccc(Cl)cc2)n1` [OT-1000, 2-((4-Chlorophenyl)sulfonyl)-6-methoxy-3-nitropyridine], the “potency relative to Iniparib, TrxR C-terminal activity” value in series [3] came to 1000 fold. The results for the IC50 in series [1] and in series [2] were 9.21 µM and 12.7 µM, respectively.

Consider `CCCCCCCCS(=O)(=O)c1nc(OC)ccc1[N+](=O)[O-]` [OT-1096, 6-methoxy-3-nitro-2-(octylsulfonyl)pyridine], for which the “% TGI” value in series [4] (10 mg/kg three times a week intravenously, human immune cells from two separate donors, caliper) was 45% and 55%. Besides, in series [4] (day 24 and 28 for CD34+ donor 5243, day 31 for donor 5252, p<0.05), the “mean tumor volume compared to vehicle” value is on record as “statistically significant”.

Broadly, the IC50 is the concentration that gives 50% inhibition. A low value points to greater potency.
